Data on 18 compounds can be found in US8389513B2, “2-amino-5,5-difluoro-5,6-dihydro-4H-[1,3]oxazin-4-yl)-phenyl]-amides” (Hoffmann-La Roche Inc., priority 2009, dated 2013).

Each structure is given as a SMILES string.

The target in one test is T1, BACE1 (Homo sapiens, UniProt P56817).
T1 construct: Human HEK293 cells which are stably transfected with a vector expressing a cDNA of the human APP wt gene (APP695); endogenous in cells; host or cells: HEK293 stably transfected with human APP695 wt
Put plainly: Cellular Aβ-lowering assay (Aβ40 ELISA). It is filed as cell-based. To be noted: HEK293 cells stably expressing human APP695; Aβ40 in culture supernatant; read-out: BACE1 cell act. Aβ40 IC50. As for the experimental part:
Cellular Aβ-Lowering Assay:
Human HEK293 cells which are stably transfected with a vector expressing a cDNA of the human APP wt gene (APP695) were used to assess the potency of the compounds in a cellular assay. The cells were seeded in 96-well microtiter plates in cell culture medium (Iscove, plus 10% (v/v) fetal bovine serum, glutamine, penicillin/streptomycin) to about 80% confluence and the compounds were added at a 10× concentration in 1/10 volume of medium without FCS containing 8% DMSO (final concentration of DMSO was kept at 0.8% v/v). After 18-20 hrs incubation at 37° C. and 5% CO2 in a humidified incubator the culture supernatant was harvested for the determination of Aβ40 concentrations. […] Subsequently the wells of the microtiter plate were washed extensively with Tris-buffered saline containing 0.05% Tween 20 and the assay was developed with tetramethylbenzidine/H2O2 in citric acid buffer. After stopping the reaction with one volume 1 NH2SO4 the reaction was measured in an ELISA reader at 450 nm wavelength. The concentrations of Aβ in the culture supernatants were calculated from a standard curve obtained with known amounts of pure Aβ peptide.
(In general: An ELISA detects its analyte on a solid surface through an enzyme-linked reagent.)

In another test the target is T2, BACE2 (Rattus norvegicus, UniProt Q6IE75).
T2 construct: endogenous cellular BACE2 in the Ins1e rat cell line; endogenous in cells; host or cells: INS-TMEM27 (INS1e-derived rat cell line with TetOn-inducible full-length hTMEM27)
T2 sequence (Q6IE75 63-514): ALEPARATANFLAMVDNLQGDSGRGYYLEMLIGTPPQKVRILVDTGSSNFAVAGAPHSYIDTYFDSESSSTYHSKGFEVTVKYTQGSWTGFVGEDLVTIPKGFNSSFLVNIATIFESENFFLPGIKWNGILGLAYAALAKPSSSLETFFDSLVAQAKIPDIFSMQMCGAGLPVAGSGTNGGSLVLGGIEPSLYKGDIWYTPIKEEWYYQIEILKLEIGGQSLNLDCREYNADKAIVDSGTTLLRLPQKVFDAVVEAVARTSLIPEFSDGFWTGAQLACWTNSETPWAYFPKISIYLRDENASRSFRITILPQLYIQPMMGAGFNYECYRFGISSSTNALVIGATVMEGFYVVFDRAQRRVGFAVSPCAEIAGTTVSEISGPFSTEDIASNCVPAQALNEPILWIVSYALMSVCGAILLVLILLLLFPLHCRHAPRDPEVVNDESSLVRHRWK
The test is described as follows: Assay for BACE inhibition by measuring cellular TMEM27 cleavage. It is filed as cell-based. To be noted: INS-TMEM27 cells (INS1e-derived); shed TMEM27 by ELISA; read-out: BACE2 cell act. IC50. From the text:
Assay for BACE Inhibition by Measuring Cellular TMEM27 Cleavage:
The assay uses the principle of inhibition of human TMEM27 cleavage by endogenous cellular BACE2 in the Ins1e rat cell line and shedding from the cell surface into the culture medium, followed by detection in an ELISA assay. Inhibition of BACE2 prevents the cleavage and shedding in a dose-dependent manner.
The stable cell line “INS-TMEM27” represents an INS1e-derived cell line with inducible expression (using the TetOn system) of full-length hTMEM27 in a doxycycline-dependent manner. The cells are cultured throughout the experiment in RPMI1640+Glutamax (Invitrogen) Penicillin/Streptomycin, 10% Fetal bovine serum, […] pyruvate, […] beta-mercatptoethanol, 100 micrograms/ml G418 and 100 microgram/ml hygromycin and are grown inadherent culture at 37° C. in a standard CO2 cell culture incubator. INS-TMEM27 cells are seeded in 96-well plates. After 2 days in culture, BACE2 inhibitor is added in a range of concentrations as required by the assay and after a further two hours, doxycycline is added to a final concentration of 500 ng/ml. The cells are incubated for a further 46 hours and the supernatant harvested for detection of shed TMEM27.
An ELISA assay (using a pair of mouse anti-human-TMEM27 antibodies, raised against the extracellular domain of TMEM27) is used for detection of TMEM27 in the culture medium. An EC50 for BACE2 inhibition is calculated using the ELISA readout for each inhibitor concentration with standard curve-fitting software such as XLFit for the Excel spreadsheet program.

T1 sequence (P56817 46-501): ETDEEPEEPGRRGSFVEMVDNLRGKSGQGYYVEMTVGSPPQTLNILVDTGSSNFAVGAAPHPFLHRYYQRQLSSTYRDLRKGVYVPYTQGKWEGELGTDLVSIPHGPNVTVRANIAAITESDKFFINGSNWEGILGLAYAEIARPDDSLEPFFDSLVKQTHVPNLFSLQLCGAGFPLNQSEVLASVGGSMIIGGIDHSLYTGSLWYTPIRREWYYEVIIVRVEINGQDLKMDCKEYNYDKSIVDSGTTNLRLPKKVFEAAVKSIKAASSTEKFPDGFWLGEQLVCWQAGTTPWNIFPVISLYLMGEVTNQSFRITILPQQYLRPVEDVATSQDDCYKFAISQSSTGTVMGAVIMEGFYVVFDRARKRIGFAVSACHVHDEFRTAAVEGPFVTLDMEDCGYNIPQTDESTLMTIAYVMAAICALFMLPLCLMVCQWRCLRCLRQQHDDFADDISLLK

With `C[C@]1(c2cc(NC(=O)c3ncc(F)cc3F)ccc2F)N=C(N)OCC1(F)F` [Example 4, 3,5-Difluoro-pyridine-2-carboxylic acid [3-((R)-2-amino-5,5-difluoro-4-methyl-5,6-dihydro-4H-[1,3]oxazin-4-yl)-4-fluoro-phenyl]-amide], the half-inhibitory concentration (IC50) came out at 31 nM at BACE1 and 26 nM on BACE2.

With `C[C@]1(c2cc(NC(=O)c3ccc(C#N)cn3)ccc2Cl)N=C(N)OCC1(F)F` [Example 51, 5-Cyano-pyridine-2-carboxylic acid [3-((R)-2-amino-5,5-difluoro-4-methyl-5,6-dihydro-4H-[1,3]oxazin-4-yl)-4-chloro-phenyl]-amide], the 50% inhibitory concentration (IC50) on BACE1 is 20 nM; at BACE2, 327 nM.

As for `CC1(C)OC(N)=N[C@](C)(c2cc(NC(=O)c3cnc(C(F)(F)F)cn3)ccc2F)C1(F)F` [Example 35, 5-Trifluoromethyl-pyrazine-2-carboxylic acid [3-((R)-2-amino-5,5-difluoro-4,6,6-trimethyl-5,6-dihydro-4H-[1,3]oxazin-4-yl)-4-fluoro-phenyl]-amide], the IC50 at BACE1 was 40 nM; on BACE2 it was 4750 nM.

`C[C@]1(c2cccc(NC(=O)c3ccc(Cl)cn3)c2)N=C(N)OCC1(F)F` [Example 52, 5-Chloro-pyridine-2-carboxylic acid [3-((R)-2-amino-5,5-difluoro-4-methyl-5,6-dihydro-4H-[1,3]oxazin-4-yl)-phenyl]-amide]: the values for the IC50 at BACE1 and on BACE2 were 9 nM and 35 nM, respectively.

On to `C[C@@](O)(C(=O)Nc1ccc(F)c([C@@]2(C)N=C(N)OCC2(F)F)c1)C(F)(F)F` [Example 76, (R)—N-[3-((R)-2-Amino-5,5-difluoro-4-methyl-5,6-dihydro-4H-[1,3]oxazin-4-yl)-4-fluoro-phenyl]-3,3,3-trifluoro-2-hydroxy-2-methyl-propionamide 2,2,2-trifluoroacetate], for which the figures for the 50% inhibitory concentration (IC50) on BACE1 and at BACE2 were 1050 nM and 1420 nM, respectively.

`C[C@]1(c2cc(NC(=O)c3ncccc3OCC(F)(F)F)ccc2F)N=C(N)OCC1(F)F` [Example 54, 3-(2,2,2-Trifluoro-ethoxy)-pyridine-2-carboxylic acid [3-((R)-2-amino-5,5-difluoro-4-methyl-5,6-dihydro-4H-[1,3]oxazin-4-yl)-4-fluoro-phenyl]-amide]: the concentration for half-maximal inhibition (IC50) was determined as 635 nM on BACE1 and 245 nM at BACE2.

As to `C[C@]1(c2cc(NC(=O)c3ncc(F)cc3Cl)ccc2F)N=C(N)OCC1(F)F` [Example 7, 3-Chloro-5-fluoro-pyridine-2-carboxylic acid [3-((R)-2-amino-5,5-difluoro-4-methyl-5,6-dihydro-4H-[1,3]oxazin-4-yl)-4-fluoro-phenyl]-amide], the results for the 50% inhibitory concentration (IC50) at BACE1 and on BACE2 were 41 nM and 49 nM, respectively.

In the case of `C[C@]1(c2cc(NC(=O)c3ccc(OCC(F)(F)C(F)(F)F)cn3)ccc2F)N=C(N)OCC1(F)F` [Example 44, 5-(2,2,3,3,3-Pentafluoro-propoxy)-pyridine-2-carboxylic acid [3-((R)-2-amino-5,5-difluoro-4-methyl-5,6-dihydro-4H-[1,3]oxazin-4-yl)-4-fluoro-phenyl]-amide], the IC50 at BACE1 turned out to be 290 nM; at BACE2, 14500 nM.

In the case of `C[C@]1(c2cc(NC(=O)c3ncc(Cl)cn3)ccc2F)N=C(N)OCC1(F)F` [Example 12, 5-Chloro-pyrimidine-2-carboxylic acid [3-((R)-2-amino-5,5-difluoro-4-methyl-5,6-dihydro-4H-[1,3]oxazin-4-yl)-4-fluoro-phenyl]-amide], the figures for the IC50 on BACE1 and on BACE2 were 23 nM and 69 nM, respectively.

Take `CC1(C)OC(N)=N[C@](C)(c2cc(NC(=O)c3ncc(Cl)cc3F)ccc2F)C1(F)F` [Example 24, 5-Chloro-3-fluoro-pyridine-2-carboxylic acid [3-((R)-2-amino-5,5-difluoro-4,6,6-trimethyl-5,6-dihydro-4H-[1,3]oxazin-4-yl)-4-fluoro-phenyl]-amide]: the figures for the IC50 on BACE1 and at BACE2 were 12 nM and 70 nM, respectively.

With `C[C@]1(c2cc(NC(=O)c3cnc(Cl)cn3)ccc2F)N=C(N)OCC1(F)F` [Example 47, 5-Chloro-pyrazine-2-carboxylic acid [3-((R)-2-amino-5,5-difluoro-4-methyl-5,6-dihydro-4H-[1,3]oxazin-4-yl)-4-fluoro-phenyl]-amide], the figures for the IC50 at BACE1 and on BACE2 were 520 nM and 34900 nM, respectively.

With `Cc1nc(C(=O)Nc2ccc(F)c([C@@]3(C)N=C(N)OCC3(F)F)c2)co1` [Example 58, 2-Methyl-oxazole-4-carboxylic acid [3-((R)-2-amino-5,5-difluoro-4-methyl-5,6-dihydro-4H-[1,3]oxazin-4-yl)-4-fluoro-phenyl]-amide], the IC50 worked out at 15 nM at BACE1 and 25 nM on BACE2.

In the case of `Cn1ccc(C(=O)Nc2ccc(F)c([C@@]3(C)N=C(N)OCC3(F)F)c2)n1` [Example 63, 1-Methyl-1H-pyrazole-3-carboxylic acid [3-((R)-2-amino-5,5-difluoro-4-methyl-5,6-dihydro-4H-[1,3]oxazin-4-yl)-4-fluoro-phenyl]-amide], the IC50 was found to be 110 nM on BACE1 and 113 nM at BACE2.

With `C[C@]1(c2cc(NC(=O)c3nn(CC(F)F)cc3Cl)ccc2F)N=C(N)OCC1(F)F` [Example 68, 4-Chloro-1-(2,2-difluoro-ethyl)-1H-pyrazole-3-carboxylic acid [3-((R)-2-amino-5,5-difluoro-4-methyl-5,6-dihydro-4H-[1,3]oxazin-4-yl)-4-fluoro-phenyl]-amide], the concentration for half-maximal inhibition (IC50) at BACE1 was found to be 927 nM; on BACE2, 230 nM.

In the case of `CC1(C)OC(N)=N[C@](C)(c2cc(NC(=O)c3ccc(Cl)nn3)ccc2F)C1(F)F` [Example 37, 6-Chloro-pyridazine-3-carboxylic acid [3-((R)-2-amino-5,5-difluoro-4,6,6-trimethyl-5,6-dihydro-4H-[1,3]oxazin-4-yl)-4-fluoro-phenyl]-amide], the half-maximal inhibitory concentration (IC50) at BACE1 came to 710 nM; on BACE2, 50700 nM.

As to `C[C@]1(c2cc(NC(=O)c3[nH]ncc3Cl)ccc2F)N=C(N)OCC1(F)F` [Example 65, 4-Chloro-2H-pyrazole-3-carboxylic acid [3-((R)-2-amino-5,5-difluoro-4-methyl-5,6-dihydro-4H-[1,3]oxazin-4-yl)-4-fluoro-phenyl]-amide], the IC50 is 404 nM on BACE1 and 543 nM at BACE2.

As to `C[C@]1(c2cc(NC(=O)c3ccc(OCC(F)F)cn3)ccc2F)N=C(N)OCC1(F)F` [Example 45, 5-(2,2-Difluoro-ethoxy)-pyridine-2-carboxylic acid [3-((R)-2-amino-5,5-difluoro-4-methyl-5,6-dihydro-4H-[1,3]oxazin-4-yl)-4-fluoro-phenyl]-amide], the IC50 at BACE1 was 400 nM; on BACE2, 25700 nM.

Consider `CC1(C)OC(N)=N[C@](C)(c2cc(NC(=O)c3ncc(C(F)(F)F)cn3)ccc2F)C1(F)F` [Example 33, 5-Trifluoromethyl-pyrimidine-2-carboxylic acid [3-((R)-2-amino-5,5-difluoro-4,6,6-trimethyl-5,6-dihydro-4H-[1,3]oxazin-4-yl)-4-fluoro-phenyl]-amide], for which the IC50 worked out at 29 nM at BACE1 and 2610 nM on BACE2.

A word on the IC50: it is the concentration that gives 50% inhibition.
